pIC50: −log10 of the molar value.
Test system: ADP-stimulated platelets
Test: Inhibition of ADP-stimulated platelet aggregation (gel-filtered human platelets)
Format: cell-based
Conditions: read-out: IC50 (concentration required to inhibit aggregation by 50% relative to a control lacking the compound), gel-filtered human platelets 2×10^8 per ml, fibrinogen 100 ug/ml, Ca^2+ 1 mM, 10 mM ADP, 37° C.
Experimental: The activity of these fibrinogen receptor antagonists is illustrated below. One test used to evaluate fibrinogen receptor antagonist activity is based on evaluation of inhibition of ADP-stimulated platelets. Aggregation requires that fibrinogen bind to and occupy the platelet fibrinogen receptor site. Inhibitors of fibrinogen binding inhibit aggregation. […] Platelet aggregation is measured at 37° C. in a Chronolog aggregometer. The reaction mixture contains gel-filtered human platelets (2×10^8 per ml), fibrinogen (100 micrograms per ml (ug/ml)), Ca^2+ (1 mM), and the fibrinogen receptor antagonists tested. The aggregation is initiated by adding […] ADP 1 minute after the other components are added. The reaction is then allowed to proceed for at least 2 minutes. The extent of inhibition of aggregation is expressed as the percentage of the rate of aggregation observed in the absence of inhibitor. […] Inhibition of ADP-stimulated platelets is shown below in Table 1, which compares the concentration (dosage) of fibrinogen receptor antagonist required to inhibit aggregation by 50% relative to a control lacking the fibrinogen receptor antagonist.

Row | Compound | pIC50
1 | CCCCS(=O)(=O)N[C@@H](Cc1ccc(OCCCCC2CCNCC2)cc1)C(=O)O | 7.82
2 | O=C(O)[C@H](Cc1ccc(OCCCCC2CCNCC2)cc1)NS(=O)(=O)c1ccccc1 | 7.74
3 | CS(=O)(=O)N[C@@H](Cc1ccc(OCCCCC2CCNCC2)cc1)C(=O)O | 7.20

The remaining lines, values ahead:

Row | pIC50 | Compound
4 | 7.74 | O=C(O)[C@H](Cc1ccc(OCCCCC2CCNCC2)cc1)NS(=O)(=O)Cc1ccccc1
5 | 7.54 | O=C(O)[C@H](Cc1ccc(OCCCCC2CCNCC2)cc1)NS(=O)(=O)CCc1ccccc1

From patent publication US5312923A, “Process for preparing fibrinogen receptor antagonists” (Merck & Co., Inc., priority 1993, dated 1994)
